# Data as given in PubChem BioAssay AID2060883 (Molecular Pharmacology Branch, DTP, NCI, 2025).
# Test system: 843782-103-R-J1-PDC complex spheroid viability
# Assay: Anticancer human tumor 843782-103-R-J1-PDC patient-derived lung adenocarcinoma cell line growth inhibition [RAS]
# Conditions: for IC50: curve of first compound; for viability, T/C: stronger effect = lower value
# Description: RAS pathway inhibitors in Combinations in Complex Spheroids
# A high-throughput screen of multi-cell type tumor spheroids was designed to identify active combinations of RAS pathway inhibitors and targeted small molecules. Complex spheroids include a stromal component modeled by human endothelial cells (HUVEC) and fibroblasts modeled by human mesenchymal stem cells (MSCs). The concentration ranges selected for each drug and investigational agent were based upon clinically achievable concentrations if the clinical Cmax of the agent was known.
# Compounds. The drugs and investigational agents: abemaciclib (NSC768073), cobimetinib (NSC768068), divarasib (GDC6063, NSC841802), docetaxel (NSC628503), GDC-1971 (RLY-1971, NSC841576), gemcitabine (NSC613327), inavolisib (NSC800729), ipatasertib (NSC767898), KB-0742 (NSC834161), MRTX-1133 (NSC836407), osimertinib (NSC779217), RMC-4630 (NSC839698), RMC-6236 (NSC851965), RMC-6291 (NSC852671), Ro-3306 (NSC812927), sapanisertib (NSC764658), SN-38 (NSC673596), staurosporine (NSC755774), SY5609 (NSC837396), and tovorafenib (DAY101, NSC766906), were obtained from the National Cancer Institute (NCI) Developmental Therapeutics Program Chemical Repository. The FDA-approved anticancer drug set is available from the NCI Developmental Therapeutics Program. […] The stock solutions were prepared in dimethyl sulfoxide (DMSO, Sigma-Aldrich, St. Louis, MO, cat. D2650) at 800-fold the tested concentration and stored at -70 degrees C prior to their use. All drugs and investigational agents were tested over a range starting from a high concentration at or near the clinical Cmax and decreasing in half-log increments. If the clinical Cmax for an agent had not been determined, the highest concentration tested was 10 microM.
# Cell Culture. All cells were maintained in an incubator at 37 degrees C and 5% CO2 with 95% humidity. The PDC lines were cultured according to standard operating procedures established by the NCI PDMR. All PDCs were thawed and cultured in Matrigel-coated flasks prepared with a working solution of 1X Ham's F-12 nutrient mix, without supplementation (Invitrogen, Waltham, MA, cat. 11765054), 100 U/mL penicillin-streptomycin (Invitrogen, cat. 15140122), and 2.5% Matrigel (Corning Inc., Corning, NY, cat. 354248) for the first three passages. The 362531-283-R-J2-PDC and 782815-120-R-J1-PDC lines were cultured in 6C/Colon 1B media, which includes advanced DMEM/F-12 (Thermo Fisher Scientific, cat. 12634028), 10 mM HEPES (Thermo Fisher Scientific, cat. 15630080), 1X GlutaMAX supplement (Thermo Fisher Scientific, cat. 35050061), 0.1 mg/mL primocin (InvivoGen, San Diego, CA, cat. ant-pm-2), 10% defined fetal bovine serum, heat inactivated (HyClone Laboratories Inc., Logan, UT, cat. SH30070.03HI), 50% L-WRN conditioned media (ATCC, cat. CRL-3276), 1.25 mM N-Acetyl-L-cysteine (Sigma-Aldrich, cat. A9165), 10 mM nicotinamide (Sigma-Aldrich, cat. N0636), 1X B-27 supplement (Thermo Fisher Scientific, cat. 17504044), 1X N-2 supplement (Thermo Fisher Scientific, cat. 17502048), 50 ng/mL human EGF (Thermo Fisher Scientific, cat. PHG0311), and 10 microM Y-27632 dihydrochloride (Tocris Bioscience, cat. 1254). The K12877-001-R-J1-PDC line was cultured in 6I media, which includes all 6C/Colon 1B media plus 10 ng/mL human FGF-10 (PeproTech, cat. 100-26), 1 ng/mL human FGF-2 (PeproTech, cat. 100-18B), 1 µM prostaglandin E2 (Tocris Bioscience, cat. 2296), […] hydrocortisone (Sigma-Aldrich, cat. H4001), and […] bovine insulin (Sigma-Aldrich, cat. I6634). The K86415-001-R-J1-PDC line was cultured in 6D media, which includes all 6C/Colon 1B media components minus the L-WRN conditioned media. The 485176-168-R4-J1-PDC was cultured in PANC media, which includes all 6C/Colon 1B media plus 100 ng/mL human FGF-10 (PeproTech, cat. 100-26), 500 nM SB-431542 (Selleckchem, cat. S1067), and 10 nM gastrin (Tocris Bioscience, cat. 3006). […]
# 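Further: viability read after seven days of compound exposure.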
smiles,measurement,setting,value
O=C(c1ccc(F)c(F)c1Nc1ccc(I)cc1F)N1CC(O)([C@@H]2CCCCN2)C1 + CCn1c(-c2cc(N3CCN(C)CC3)cnc2C(C)OC)c2c3cc(ccc31)-c1csc(n1)CC(NC(=O)C1CC1C)C(=O)N1CCCC(N1)C(=O)OCC(C)(C)C2,IC50,second compound 0.000949 µM,18 nM
same,IC50,second compound 0.003 µM,4.01 nM
same,IC50,second compound 0.00949 µM,< 3.16 nM
same,IC50,second compound 0.03 µM,< 3.16 nM
same,IC50,second compound 0.0949 µM,< 3.16 nM
same,IC50,second compound 0.3 µM,< 3.16 nM
same,"viability, T/C","second compound 0.000949 µM, first compound 0.00316 µM",68.7%
same,"viability, T/C","second compound 0.000949 µM, first compound 0.01 µM",63.4%
same,"viability, T/C","second compound 0.000949 µM, first compound 0.0316 µM",36.7%
same,"viability, T/C","second compound 0.000949 µM, first compound 0.1 µM",26.3%
same,"viability, T/C","second compound 0.000949 µM, first compound 0.316 µM",19%
same,"viability, T/C","second compound 0.000949 µM, first compound 1 µM",11%
same,"viability, T/C","second compound 0.003 µM, first compound 0.00316 µM",53%
same,"viability, T/C","second compound 0.003 µM, first compound 0.01 µM",37.5%
same,"viability, T/C","second compound 0.003 µM, first compound 0.0316 µM",31.5%
same,"viability, T/C","second compound 0.003 µM, first compound 0.1 µM",17.7%
same,"viability, T/C","second compound 0.003 µM, first compound 0.316 µM",11.7%
same,"viability, T/C","second compound 0.003 µM, first compound 1 µM",10.3%
same,"viability, T/C","second compound 0.00949 µM, first compound 0.00316 µM",30%
same,"viability, T/C","second compound 0.00949 µM, first compound 0.01 µM",19.3%
same,"viability, T/C","second compound 0.00949 µM, first compound 0.0316 µM",16.9%
same,"viability, T/C","second compound 0.00949 µM, first compound 0.1 µM",10.9%
same,"viability, T/C","second compound 0.00949 µM, first compound 0.316 µM",9.55%
same,"viability, T/C","second compound 0.00949 µM, first compound 1 µM",7.11%
same,"viability, T/C","second compound 0.03 µM, first compound 0.00316 µM",14.8%
same,"viability, T/C","second compound 0.03 µM, first compound 0.01 µM",15.3%
same,"viability, T/C","second compound 0.03 µM, first compound 0.0316 µM",10.1%
same,"viability, T/C","second compound 0.03 µM, first compound 0.1 µM",8.81%
same,"viability, T/C","second compound 0.03 µM, first compound 0.316 µM",8.18%
same,"viability, T/C","second compound 0.03 µM, first compound 1 µM",9.08%
same,"viability, T/C","second compound 0.0949 µM, first compound 0.00316 µM",13%
same,"viability, T/C","second compound 0.0949 µM, first compound 0.01 µM",10.8%
same,"viability, T/C","second compound 0.0949 µM, first compound 0.0316 µM",9.11%
same,"viability, T/C","second compound 0.0949 µM, first compound 0.1 µM",7.24%
same,"viability, T/C","second compound 0.0949 µM, first compound 0.316 µM",7.61%
same,"viability, T/C","second compound 0.0949 µM, first compound 1 µM",8.33%
same,"viability, T/C","second compound 0.3 µM, first compound 0.00316 µM",10.4%
same,"viability, T/C","second compound 0.3 µM, first compound 0.01 µM",8.56%
same,"viability, T/C","second compound 0.3 µM, first compound 0.0316 µM",7.38%
same,"viability, T/C","second compound 0.3 µM, first compound 0.1 µM",6.95%
same,"viability, T/C","second compound 0.3 µM, first compound 0.316 µM",8.88%
same,"viability, T/C","second compound 0.3 µM, first compound 1 µM",5.35%
